Measurements taken from US20260234107A1, “TRYPTAMINES AND METHODS OF TREATING MOOD DISORDERS” (priority 2022, published 2026).
Read-outs that look alike come from different tables or passages of the source.

Tests used:
[1] = Stability in rat brain homogenate; assay type: in vitro ADME, male Sprague Dawley rats; details: rat brain homogenate, 1 μM, 37° C.; for half-life at 1 µM: male, Sprague Dawley
Experimental: Disclosed compounds were tested for stability in rat brain homogenate (Table 8). There was widely variable stability among the test compounds under the conditions of the experiment.
(§1) Rat Brain Homogenate Stability. Frozen rat brain homogenate (pooled from male Sprague Dawley rats, BioreclamationIVT, RAT00BRAINMZA) was thawed in a water bath at 37° C. immediately prior to use. Positive controls and test compounds (final concentration in incubation medium=1 μM for test compounds and 2 μM for controls, all with 2% DMSO) were incubated in duplicate for each time point (0, 10, 30, 60, and 120 min) in the rat brain homogenate at a total reaction volume of 100 μL at 37° C. At the end of each incubation period, reactions were immediately quenched with 400 μL of acetonitrile containing internal standard (200 ng/mL tolbutamine and 200 ng/mL labetalol) and mixed thoroughly. Plates were then sealed, shaken for 20 min, and centrifuged at 4,000 rpm and 4° C. for 20 min. Aliquots of 50 μL of each supernatant were diluted into 100 μL of water and the mixtures were then shaken again for 10 min.

rat synaptosomes = experiment: Serotonin (5-HT) release from rat synaptosomes; assay type: biochemical, Male Sprague-Dawley rats; details: for EC50: rat synaptosomes preloaded with [3H]5-HT; for % Release @ Max Dose (10 μM): rat synaptosomes
Experimental: Disclosed compounds were assessed for their ability to release serotonin (5-HT) from […] (Table 9). Potency and efficacy for 5-HT release varied substantially depending on the specific compound. […] However, there was also substantial variability among 4-hydroxy compounds.
Synaptosome 5-HT Release Assay. Synaptosome release assays were conducted according to modifications of previously described procedures (Partilla et al. (2016). Interrogating the Activity of Ligands at Monoamine Transporters in Rat Brain Synaptosomes. In Neurotransmitter Transporters (pp. 41-52). Springer.). Briefly, synaptosomes were prepared from rat brains. Male Sprague-Dawley rats were rendered unconscious with CO2 and their brains were immediately removed. The cerebella were discarded and the whole brains (minus striatum) were placed in ice-cold 0.32 M sucrose (10 mL per brain) and gently homogenized by hand. The homogenate of each brain was centrifuged at 1,000×g at 4° C. for 10 mins and the resulting supernatant was diluted with ice-cold 0.32 M sucrose to a total volume of 10 mL to provide the synaptosome solution. Synaptosomes were then preloaded with 5 nM [^3H]5-HT in the presence of selective uptake inhibitors of DAT (50 nM GBR12935), NET (100 nM nomifensine), and VMAT2 (1 μM reserpine) in Krebs phosphate buffer (KPB). The incubations were allowed to reach equilibrium for 2 h at 25° C. For the release reactions, 425 μL of preloaded synaptosomes were added to test tubes containing 75 μL of test drugs diluted in KPB containing 1 mg/mL BSA. After 10 mins, the release reaction was stopped using a cell harvester by rapid vacuum filtration over GF/B filter paper presoaked in wash buffer (10 mM Tris-HCl, pH 7.4, 150 mM NaCl) and the filters were washed with additional wash buffer. Filters were dried for 1 h at 60° C. and retained radioactivity was quantified using a MicroBeta 2 liquid scintillation counter. The amount of retained radioactivity was inversely proportional to the extent of release.

[2] = Metabolic stability in human liver microsomes (HLM); parameters: microsomal CLint / half-life: dose or concentration left out as unconfirmed; details: both, human, pooled human liver microsomes, pH 7.4
[3] = Stability in mouse brain homogenate; assay type: in vitro ADME, male CD-1 mice; details: mouse brain homogenate, 1 μM, 37° C.; for half-life at 1 µM: male, CD-1
Experimental: Disclosed compounds were tested for stability in mouse brain homogenate (Table 7). There was widely variable stability among the test compounds under the conditions of the experiment.
as §1, with “Mouse Brain” for “Rat Brain”, “Frozen mouse” for “Frozen rat”, “male CD-1 mice,” for “male Sprague Dawley rats,”, “BioreclamationIVT, MSE00BRAINMZA)” for “BioreclamationIVT, RAT00BRAINMZA)”, “the mouse” for “the rat”

5-HT1A = target: T1, 5-HT1A (Homo sapiens, UniProt P08908); experiment: FLIPR Ca2+ flux agonist assay at 5-HT1A; assay type: cell-based
T1 construct: host or cells: CHO cells
T1 sequence (P08908 1-422): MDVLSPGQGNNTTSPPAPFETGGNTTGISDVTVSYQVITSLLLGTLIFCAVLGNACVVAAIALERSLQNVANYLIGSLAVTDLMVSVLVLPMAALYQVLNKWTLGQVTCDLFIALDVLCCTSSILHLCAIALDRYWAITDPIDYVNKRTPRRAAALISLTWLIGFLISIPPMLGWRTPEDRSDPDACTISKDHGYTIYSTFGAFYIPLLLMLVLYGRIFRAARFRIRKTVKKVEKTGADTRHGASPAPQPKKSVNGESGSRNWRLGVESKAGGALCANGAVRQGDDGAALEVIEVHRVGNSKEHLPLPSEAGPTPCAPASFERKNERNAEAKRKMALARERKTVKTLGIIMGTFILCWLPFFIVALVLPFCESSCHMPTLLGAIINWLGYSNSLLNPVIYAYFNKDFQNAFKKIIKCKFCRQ
Experimental: (§2) A solution of 250 mM probenecid in 1 mL FLIPR assay buffer was prepared fresh. This was combined with a fluorescent dye (Fluo-4 Direct™) to make a final assay concentration of 2.5 mM. […] The fluorescent dye was then added to the assay plate along with assay buffer to a final volume of 40 μL. The cell plate was incubated for 50 min at 37° C. and 5% CO2 and placed into the FLIPR Tetra along with the compound plate. 10 μL of references and compounds were then transferred from the compound plate into the cell plate and the fluorescent signal was read.

[4] = system: monoamine oxidase A and B (MAO-A and MAO-B); experiment: Stability in the presence of monoamine oxidases (human liver mitochondria preparation); parameters: half-life / microsomal CLint: dose or concentration left out as unconfirmed; details: for Remaining (t = 60 min) / half-life / microsomal CLint: human liver mitochondria; for half-life / microsomal CLint: human, pH 7.4; for stability in the presence of MAO (in words): human liver mitochondria preparation; for CLint(MAO) / t1/2: human liver mitochondria 0.30 mg protein/mL, 37° C.
Experimental: Liver Mitochondria Incubations. Human liver mitochondria (Xenotech H0610.M) were used.

[5] = Plasma pharmacokinetics in rats after intravenous administration; details: for AUC(0-t) / C0 / half-life: male, Sprague Dawley, rat, plasma, iv, 1 mg/kg; for plasma half-life (in words): rats, IV 1 mg/kg
5-HT2C receptor = target: T2, 5-HT2C receptor (Homo sapiens, UniProt P28335); experiment: cell-based; assay type: cell-based; details: Ca2+ flux
T2 sequence (P28335 33-458): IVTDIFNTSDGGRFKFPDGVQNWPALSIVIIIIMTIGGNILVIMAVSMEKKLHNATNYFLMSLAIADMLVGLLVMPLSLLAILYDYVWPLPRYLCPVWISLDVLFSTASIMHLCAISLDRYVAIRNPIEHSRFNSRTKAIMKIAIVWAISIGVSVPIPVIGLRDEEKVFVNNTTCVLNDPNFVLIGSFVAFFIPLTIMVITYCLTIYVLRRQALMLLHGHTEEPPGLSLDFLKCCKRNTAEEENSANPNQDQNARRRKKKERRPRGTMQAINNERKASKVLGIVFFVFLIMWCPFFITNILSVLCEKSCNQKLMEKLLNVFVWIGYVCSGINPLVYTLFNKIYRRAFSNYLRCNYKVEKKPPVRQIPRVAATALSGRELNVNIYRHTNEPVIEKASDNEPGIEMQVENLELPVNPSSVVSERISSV

5-HT2A = 5-HT2A (Homo sapiens, UniProt P28223); experiment: FLIPR Ca2+ flux agonist assay at 5-HT2A; assay type: cell-based; parameters: host or cells: HEK293; details: Ca2+ flux, HEK293; read-out: 5-HT2A EC50
Experimental: as §2

5-HT2B = target: T3, 5-HT2B (Homo sapiens, UniProt P41595); experiment: FLIPR Ca2+ flux agonist assay at 5-HT2B; assay type: cell-based; details: Ca2+ flux
T3 construct: host or cells: HEK293
Experimental: as §2

T3 sequence (P41595 whole entry, species assumed): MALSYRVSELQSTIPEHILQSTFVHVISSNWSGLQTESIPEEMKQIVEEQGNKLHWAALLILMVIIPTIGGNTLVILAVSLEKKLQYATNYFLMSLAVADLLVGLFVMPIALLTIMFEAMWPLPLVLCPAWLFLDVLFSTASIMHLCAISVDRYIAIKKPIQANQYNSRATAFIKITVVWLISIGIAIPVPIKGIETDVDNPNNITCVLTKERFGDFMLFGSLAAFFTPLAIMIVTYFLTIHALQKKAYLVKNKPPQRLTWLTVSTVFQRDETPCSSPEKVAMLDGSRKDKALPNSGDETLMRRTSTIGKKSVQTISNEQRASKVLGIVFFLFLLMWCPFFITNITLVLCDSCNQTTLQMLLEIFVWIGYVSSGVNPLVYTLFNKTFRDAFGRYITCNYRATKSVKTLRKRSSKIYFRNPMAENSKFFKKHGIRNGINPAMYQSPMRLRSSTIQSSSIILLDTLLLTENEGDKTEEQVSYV
5-HT2A, sequence (P28223 whole entry): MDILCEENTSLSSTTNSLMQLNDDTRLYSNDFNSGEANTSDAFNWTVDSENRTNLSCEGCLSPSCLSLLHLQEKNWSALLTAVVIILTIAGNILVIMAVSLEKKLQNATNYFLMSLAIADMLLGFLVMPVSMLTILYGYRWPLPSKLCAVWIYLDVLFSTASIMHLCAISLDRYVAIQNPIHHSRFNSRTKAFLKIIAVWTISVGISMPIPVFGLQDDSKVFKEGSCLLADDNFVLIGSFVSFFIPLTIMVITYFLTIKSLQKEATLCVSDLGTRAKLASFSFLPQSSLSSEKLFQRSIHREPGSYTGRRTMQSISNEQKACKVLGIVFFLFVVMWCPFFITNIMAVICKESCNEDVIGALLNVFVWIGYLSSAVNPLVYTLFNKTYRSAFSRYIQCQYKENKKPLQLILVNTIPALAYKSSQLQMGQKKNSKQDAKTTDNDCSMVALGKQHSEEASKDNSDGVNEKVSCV

| Compound | half-life at 1 µM [1] [h] | % Compound Remaining (after 120 min) [1] [%] | EC50 (rat synaptosomes) [nM] | % Release @ Max Dose (10 μM) (rat synaptosomes) [%] | half-life [2] [h] | microsomal CLint [2] [µL/min/mg] | half-life at 1 µM [3] [h] | % Compound Remaining (after 120 min) [3] [%] | 5-HT1A % Act @ Max Dose (5-HT1A; Ca2+ flux, CHO cells) [%] | Remaining (t = 60 min) [4] [%] | half-life [4] [h] | microsomal CLint [4] [µL/min/mg] | stability in the presence of MAO (in words) [4] | AUC(0-t) [5] [ng·h/mL] | C0 [5] [ng/mL] | half-life [5] [h] | CLint(MAO) [4] [µL/min/mg] | t1/2 [4] [h] | other results |
| --- | --- | --- | --- | --- | --- | --- | --- | --- | --- | --- | --- | --- | --- | --- | --- | --- | --- | --- | --- |
| CC(C)NCCc1c[nH]c2cccc(O)c12 [Compound 6, 3-(2-(isopropylamino)ethyl)-1H-indol-4-ol] | 2.27 | 53.8 | > 10000 | 32.8 | > 2.42 | < 9.6 | 2.71 | 62.6 | 10.15 | 80.5 | > 2.42 | < 15.9 |  |  |  |  |  |  | EC50 (5-HT1A): > 100000 nM |
| CCCNCCc1c[nH]c2cccc(O)c12 [Compound 3, 3-(2-(propylamino)ethyl)-1H-indol-4-ol] | 2.28 | 52.5 | > 10000 | 36.06 | 1.99 | 11.6 | 1.21 | 29.2 | 10.7 | 97.3 | > 2.42 | < 15.9 | highly stable |  |  |  |  |  | EC50 (5-HT1A): 33100 nM |
| CCNCCc1c[nH]c2cccc(O)c12 [Compound 5, 3-(2-(ethylamino)ethyl)-1H-indol-4-ol] | 2.63 | 61.5 | 4060 | 53.8 | > 2.42 | < 9.6 | 3.06 | 67.2 |  | 76.2 | > 2.42 | < 15.9 |  | 161 | 350 | 0.65 |  |  |  |
| CN(C)CCc1c[nH]c2ccccc12 [DMT, N,N-dimethyltryptamine, reference compound] |  | 0.0 | 80.8 | 80.77 |  |  |  | 0.0 |  | 8.9 |  |  | rapidly metabolized by MAO |  |  |  | 134.9 | 0.285 | t1/2 [1]: 0.085 h; t1/2 [3]: 0.107 h |
| CCCN(CC)CCc1c[nH]c2ccccc12 [EPT, N-ethyl-N-propyltryptamine, reference compound] |  |  | 264 | 45.02 |  |  |  |  | 75.5 | 95.1 |  |  | more stable |  |  |  | <15.9 | >2.42 | EC50 (5-HT2C receptor): 33.4 nM; 5-HT2C % Act @ Max Dose (5-HT2C receptor; max dose): 90.8%; EC50 (5-HT2A): 30.5 nM; 5-HT2B % Act @ Max Dose (5-HT2B; HEK293, max dose): 80.4%; EC50 (5-HT2B; HEK293, ND = not determined due to lack of measurable agonism, read-out: 5-HT2B EC50): 40.3 nM; EC50 (5-HT1A; Ca2+ flux, CHO cells, ND = not determined due to lack of measurable agonism, read-out: 5-HT1A EC50): 88700 nM |
| CNCCc1c[nH]c2cccc(O)c12 [Compound 2, 3-(2-(methylamino)ethyl)-1H-indol-4-ol] | 0.105 | 0.2 |  |  | 0.22 | 105 | 0.233 | 0.2 |  | 12.8 | 0.312 | 124 | highly unstable | 21 | 185 | 0.18 |  |  | plasma half-life (in words) [5]: very short half-lives |
| CN(C)CCc1c[nH]c2cccc(O)c12 [Psilocin, psilocin, reference compound] |  | 46.1 |  |  |  |  |  | 97.6 | 0.720 | 112.1 |  |  | stable | 146 | 179 | 1.56 | <15.9 | >2.42 | plasma half-life (in words) [5]: much longer half-lives; t1/2 [1]: 1.913 h; t1/2 [3]: >4.818 h |
